Measurements taken from patent publication US20260022143A1, “Cyclic Peptide Inhibitors of IL-23” (JANSSEN PHARMACEUTICA NV, priority 2022, published 2026).
Positions of bridges follow the written chain, without caps; N, C: chain ends. Non-standard residues stand in square brackets, D forms with d. Residues, ends and D or L forms follow the SMILES beside them. *: point of attachment. Me3N+(CH2)2O(CH2)2O(CH2)2CO = C[N+](C)(C)CCOCCOCCC(=O)*; X34 = C[N+](C)(C)CCOCCOCCC(=O)N(CC[N+](C)(C)C)CC*; CH2CH2OCH2CH2OCH2CH2NMe3+ = C[N+](C)(C)CCOCCOCC*; NH(CH2CH2O)2CH2CH2NMe3+ = C[N+](C)(C)CCOCCOCCN*; Trp(7-Me) = Cc1cccc2c(C[C@H](N)C(=O)O)c[nH]c12; dLys(Me3) = C[N+](C)(C)CCCC[C@@H](N)C(=O)O; Dab(NMeAc) = CC(=O)N(C)CC[C@H](N)C(=O)O; 2Nal = N[C@@H](Cc1ccc2ccccc2c1)C(=O)O; 3Pal = N[C@@H](Cc1cccnc1)C(=O)O; Lys(Me) = CNCCCC[C@H](N)C(=O)O; X53 = C[N+]1(CCOCCOCC*)CCOCC1; Pen = CC(C)(S)[C@H](N)C(=O)O; X86 = C[N+]1(C)CCCC(C*)C1; X88 = COCC[N+](C)(C)CCCC*; Thp = NC1(C(=O)O)CCOCC1; X3 = C[N+](C)(C)CCCCC*; X72 = C[N+](C)(C)CCCC*; Sar = CNCC(=O)O

Assay: Exposed Polar Surface Area (EPSA)
Format: physicochemical
Conditions: SFC on Chirex 3014 column; sample 1 mM DMSO stock; read-out: EPSA
In short: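 Retention-based polarity: supercritical CO2 with 20 mM ammonium formate in MeOH (5–60%, 20%/min), Chirex 3014 column, 35 °C. Calibrated against 8 standards to give EPSA (Å^2); each sample measured twice.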

EPSA [A^2]	SMILES
141	CC(=O)N(C)CCCC[C@@H]1NC(=O)[C@H](Cc2c[nH]c3c(C)cccc23)NC(=O)[C@H]([C@@H](C)O)NC(=O)[C@H](CC(=O)N(C)C)NC(=O)[C@@H](NC(=O)CCOCCOCC[N+](C)(C)C)C(C)(C)SSC(C)(C)[C@@H](C(=O)N[C@@H](Cc2ccc(OCCN(CC[N+](C)(C)C)C(=O)CCOCCOCC[N+](C)(C)C)cc2)C(=O)N[C@@H](Cc2ccc3ccccc3c2)C(=O)NC2(C(=O)N[C@@H](CCCCN(C)C(C)=O)C(=O)N[C@@H](CC(N)=O)C(=O)N[C@@H](Cc3cccnc3)C(=O)N(C)CC(=O)N(C)C)CCOCC2)NC1=O [compound 208, cPEG3aCO-Pen(3)-N(N(Me)2)-T-7MeW-K(NMeAc)-Pen(3)-AEF((Ch)cPEG3a)-2Nal-THP-K(NMeAc)-N-3Pya-Sar-CON(Me)2] ({Me3N+(CH2)2O(CH2)2O(CH2)2CO}-[Pen]D(NMe2)T[Trp(7-Me)][Lys(Me)](Ac)[Pen]Y(X34)[2Nal][Thp][Lys(Me)](Ac)N[3Pal][Sar]-NMe2; disulfide 1-6)
139	CC(=O)N(C)CCCC[C@@H]1NC(=O)[C@H](Cc2c[nH]c3c(C)cccc23)NC(=O)[C@H]([C@@H](C)O)NC(=O)[C@H](CC(=O)N(C)C)NC(=O)[C@@H](NC(=O)CCOCCOCC[N+](C)(C)C)C(C)(C)SSC(C)(C)[C@@H](C(=O)N[C@@H](Cc2ccc(OCCOCCOCC[N+](C)(C)C)cc2)C(=O)N[C@@H](Cc2ccc3ccccc3c2)C(=O)NC2(C(=O)N[C@@H](CCN(C)C(C)=O)C(=O)N[C@@H](CC(N)=O)C(=O)N[C@@H](Cc3cccnc3)C(=O)N(C)CC(=O)N(C)C)CCOCC2)NC1=O [compound 209, cPEG3aCO-Pen(3)-N(N(Me)2)-T-7MeW-K(NMeAc)-Pen(3)-APEG3F-2Nal-THP-Dab(NMeAc)-N-3Pya-Sar-CON(Me)2] ({Me3N+(CH2)2O(CH2)2O(CH2)2CO}-[Pen]D(NMe2)T[Trp(7-Me)][Lys(Me)](Ac)[Pen]Y(CH2CH2OCH2CH2OCH2CH2NMe3+)[2Nal][Thp][Dab(NMeAc)]N[3Pal][Sar]-NMe2; disulfide 1-6)
145	CC(=O)N(C)CCCC[C@@H]1NC(=O)[C@H](Cc2c[nH]c3c(C)cccc23)NC(=O)[C@H]([C@@H](C)O)NC(=O)[C@H](CC(=O)N(C)C)NC(=O)[C@@H](NC(=O)CCOCCOCC[N+](C)(C)C)C(C)(C)SSC(C)(C)[C@@H](C(=O)N[C@@H](Cc2ccc(OCC3CCC[N+](C)(C)C3)cc2)C(=O)N[C@@H](Cc2ccc3ccccc3c2)C(=O)NC2(C(=O)N[C@@H](CCCCN(C)C(C)=O)C(=O)N[C@@H](CC(N)=O)C(=O)N[C@@H](Cc3cccnc3)C(=O)N(C)CC(=O)N(C)C)CCOCC2)NC1=O (stereo partly drawn) [compound 215, cPEG3aCO-Pen(3)-N(N(Me)2)-T-7MeW-K(NMeAc)-Pen(3)-DMMMF-2Nal-THP-K(NMeAc)-N-3Pya-Sar-CON(Me)2] ({Me3N+(CH2)2O(CH2)2O(CH2)2CO}-[Pen]D(NMe2)T[Trp(7-Me)][Lys(Me)](Ac)[Pen]Y(X86)[2Nal][Thp][Lys(Me)](Ac)N[3Pal][Sar]-NMe2; disulfide 1-6)
141	CC(=O)N[C@H](CCCC[N+](C)(C)C)C(=O)N[C@@H]1C(=O)N[C@@H](CC(=O)N(C)C)C(=O)N[C@@H]([C@@H](C)O)C(=O)N[C@@H](Cc2c[nH]c3c(C)cccc23)C(=O)N[C@@H](CCCCN(C)C(C)=O)C(=O)N[C@H](C(=O)N[C@@H](Cc2ccc(OCCOCCOCC[N+](C)(C)C)cc2)C(=O)N[C@@H](Cc2ccc3ccccc3c2)C(=O)NC2(C(=O)N[C@@H](CCCCN(C)C(C)=O)C(=O)N[C@@H](CC(N)=O)C(=O)N[C@@H](Cc3cccnc3)C(=O)N(C)CC(=O)N(C)C)CCOCC2)C(C)(C)SSC1(C)C [compound 216, MeCO-k(Me)3-Pen(3)-N(N(Me)2)-T-7MeW-K(NMeAc)-Pen(3)-APEG3F-2Nal-THP-K(NMeAc)-N-3Pya-Sar-CON(Me)2] (Ac-[dLys(Me3)][Pen]D(NMe2)T[Trp(7-Me)][Lys(Me)](Ac)[Pen]Y(CH2CH2OCH2CH2OCH2CH2NMe3+)[2Nal][Thp][Lys(Me)](Ac)N[3Pal][Sar]-NMe2; disulfide 2-7)
138	CC(=O)N[C@@H]1C(=O)N[C@@H](CC(=O)N(C)C)C(=O)N[C@@H]([C@@H](C)O)C(=O)N[C@@H](Cc2c[nH]c3c(C)cccc23)C(=O)N[C@@H](CCCCN(C)C(=O)CCOCCOCC[N+](C)(C)C)C(=O)N[C@H](C(=O)N[C@@H](Cc2ccc(OCCOCCOCC[N+](C)(C)C)cc2)C(=O)N[C@@H](Cc2ccc3ccccc3c2)C(=O)NC2(C(=O)N[C@@H](CCCCN(C)C(C)=O)C(=O)N[C@@H](CC(N)=O)C(=O)N[C@@H](Cc3cccnc3)C(=O)N(C)CC(=O)N(C)C)CCOCC2)C(C)(C)SSC1(C)C [compound 217, MeCO-Pen(3)-N(N(Me)2)-T-7MeW-K(NMePEG3a)-Pen(3)-APEG3F-2Nal-THP-K(NMeAc)-N-3Pya-Sar-CON(Me)2] (Ac-[Pen]D(NMe2)T[Trp(7-Me)][Lys(Me)](Me3N+(CH2)2O(CH2)2O(CH2)2CO)[Pen]Y(CH2CH2OCH2CH2OCH2CH2NMe3+)[2Nal][Thp][Lys(Me)](Ac)N[3Pal][Sar]-NMe2; disulfide 1-6)
136	CC(=O)N[C@@H]1C(=O)N[C@@H](CC(=O)N(C)C)C(=O)N[C@@H]([C@@H](C)O)C(=O)N[C@@H](Cc2c[nH]c3c(C)cccc23)C(=O)N[C@@H](CCCCN(C)C(C)=O)C(=O)N[C@H](C(=O)N[C@@H](Cc2ccc(OCCOCCOCC[N+](C)(C)C)cc2)C(=O)N[C@@H](Cc2ccc3ccccc3c2)C(=O)NC2(C(=O)N[C@@H](CCCCN(C)C(=O)CCOCCOCC[N+](C)(C)C)C(=O)N[C@@H](CC(N)=O)C(=O)N[C@@H](Cc3cccnc3)C(=O)N(C)CC(=O)N(C)C)CCOCC2)C(C)(C)SSC1(C)C [compound 218, MeCO-Pen(3)-N(N(Me)2)-T-7MeW-K(NMeAc)-Pen(3)-APEG3F-2Nal-THP-K(NMePEG3a)-N-3Pya-Sar-CON(Me)2] (Ac-[Pen]D(NMe2)T[Trp(7-Me)][Lys(Me)](Ac)[Pen]Y(CH2CH2OCH2CH2OCH2CH2NMe3+)[2Nal][Thp][Lys(Me)](Me3N+(CH2)2O(CH2)2O(CH2)2CO)N[3Pal][Sar]-NMe2; disulfide 1-6)
139	CC(=O)N[C@@H]1C(=O)N[C@@H](CC(=O)N(C)C)C(=O)N[C@@H]([C@@H](C)O)C(=O)N[C@@H](Cc2c[nH]c3c(C)cccc23)C(=O)N[C@@H](CCCCN(C)C(C)=O)C(=O)N[C@H](C(=O)N[C@@H](Cc2ccc(OCCCCC[N+](C)(C)C)cc2)C(=O)N[C@@H](Cc2ccc3ccccc3c2)C(=O)NC2(C(=O)N[C@@H](CCCCN(C)C(C)=O)C(=O)N[C@@H](CC(N)=O)C(=O)N[C@@H](Cc3cccnc3)C(=O)N(C)CC(=O)NCCOCCOCC[N+](C)(C)C)CCOCC2)C(C)(C)SSC1(C)C [compound 219, MeCO-Pen(3)-N(N(Me)2)-T-7MeW-K(NMeAc)-Pen(3)-TMAPF-2Nal-THP-K(NMeAc)-N-3Pya-Sar-CO(NHPEG3a)] (Ac-[Pen]D(NMe2)T[Trp(7-Me)][Lys(Me)](Ac)[Pen]Y(X3)[2Nal][Thp][Lys(Me)](Ac)N[3Pal][Sar]-{NH(CH2CH2O)2CH2CH2NMe3+}; disulfide 1-6 (inferred))
141	CC(=O)N(C)CCCC[C@@H]1NC(=O)[C@H](Cc2c[nH]c3c(C)cccc23)NC(=O)[C@H]([C@@H](C)O)NC(=O)[C@H](CC(=O)N(C)C)NC(=O)[C@@H](NC(=O)CCOCCOCC[N+](C)(C)C)C(C)(C)SSC(C)(C)[C@@H](C(=O)N[C@@H](Cc2ccc(OCCOCCOCC[N+]3(C)CCOCC3)cc2)C(=O)N[C@@H](Cc2ccc3ccccc3c2)C(=O)NC2(C(=O)N[C@@H](CCCCN(C)C(C)=O)C(=O)N[C@@H](CC(N)=O)C(=O)N[C@@H](Cc3cccnc3)C(=O)N(C)CC(=O)N(C)C)CCOCC2)NC1=O [compound 223, cPEG3aCO-Pen(3)-N(N(Me)2)-T-7MeW-K(NMeAc)-Pen(3)-MMPEG3F-2Nal-THP-K(NMeAc)-N-3Pya-Sar-CON(Me)2] ({Me3N+(CH2)2O(CH2)2O(CH2)2CO}-[Pen]D(NMe2)T[Trp(7-Me)][Lys(Me)](Ac)[Pen]Y(X53)[2Nal][Thp][Lys(Me)](Ac)N[3Pal][Sar]-NMe2; disulfide 1-6)
142	CC(=O)N(C)CCCC[C@@H]1NC(=O)[C@H](Cc2c[nH]c3c(C)cccc23)NC(=O)[C@H]([C@@H](C)O)NC(=O)[C@H](CC(=O)N(C)C)NC(=O)[C@@H](NC(=O)CCOCCOCC[N+](C)(C)C)C(C)(C)SSC(C)(C)[C@@H](C(=O)N[C@@H](Cc2ccc(OCCCC[N+](C)(C)C)cc2)C(=O)N[C@@H](Cc2ccc3ccccc3c2)C(=O)NC2(C(=O)N[C@@H](CCCCN(C)C(C)=O)C(=O)N[C@@H](CC(N)=O)C(=O)N[C@@H](Cc3cccnc3)C(=O)N(C)CC(=O)N(C)C)CCOCC2)NC1=O [compound 226, cPEG3aCO-Pen(3)-N(N(Me)2)-T-7MeW-K(NMeAc)-Pen(3)-TMA4F-2Nal-THP-K(NMeAc)-N-3Pya-Sar-CON(Me)2] ({Me3N+(CH2)2O(CH2)2O(CH2)2CO}-[Pen]D(NMe2)T[Trp(7-Me)][Lys(Me)](Ac)[Pen]Y(X72)[2Nal][Thp][Lys(Me)](Ac)N[3Pal][Sar]-NMe2; disulfide 1-6)
139	COCC[N+](C)(C)CCCCOc1ccc(C[C@H](NC(=O)[C@H]2NC(=O)[C@H](CCCCN(C)C(C)=O)NC(=O)[C@H](Cc3c[nH]c4c(C)cccc34)NC(=O)[C@H]([C@@H](C)O)NC(=O)[C@H](CC(=O)N(C)C)NC(=O)[C@@H](NC(=O)CCOCCOCC[N+](C)(C)C)C(C)(C)SSC2(C)C)C(=O)N[C@@H](Cc2ccc3ccccc3c2)C(=O)NC2(C(=O)N[C@@H](CCCCN(C)C(C)=O)C(=O)N[C@@H](CC(N)=O)C(=O)N[C@@H](Cc3cccnc3)C(=O)N(C)CC(=O)N(C)C)CCOCC2)cc1 [compound 227, cPEG3aCO-Pen(3)-N(N(Me)2)-T-7MeW-K(NMeAc)-Pen(3)-mPEG2TMA4F-2Nal-THP-K(NMeAc)-N-3Pya-Sar-CON(Me)2] ({Me3N+(CH2)2O(CH2)2O(CH2)2CO}-[Pen]D(NMe2)T[Trp(7-Me)][Lys(Me)](Ac)[Pen]Y(X88)[2Nal][Thp][Lys(Me)](Ac)N[3Pal][Sar]-NMe2; disulfide 1-6)
